Tests used:
[1] = organism: Cavia porcellus; test: Effective refractory period of contractile response in isolated guinea-pig papillary muscles at 3 Hz and 1 uM.; assay type: functional, Muscle tissue
[2] = Ratio of ERPc prolongation was measured as percent change at 3 Hz/1 Hz; assay type: functional
[3] = organism: Cavia porcellus; test: Effective refractory period of contractile response in isolated guinea-pig papillary muscles at 1 Hz and 1 uM.; assay type: functional, Muscle tissue
[4] = organism: Cavia porcellus; test: Effect of 1 uM of compound, on action potential duration (APD) was determined in isolated guinea-pig papillary muscles at 1 Hz.; assay type: functional, Muscle tissue
[5] = organism: Cavia porcellus; test: Effect of 1 uM of compound, on action potential duration (APD) was determined in isolated guinea-pig papillary muscles at 3 Hz; assay type: functional, Muscle tissue
[6] = Ratio of APD prolongation was measured as percent change at 3 Hz/1 Hz; assay type: functional

Row | SMILES | Delta ERPc [1] [%] | Ratio [2] | Delta ERPc [3] [%] | Delta APD90 [4] [%] | Delta APD90 [5] [%] | Ratio [6]
1 | COc1ccc(CCN(C)CCOc2ccc(NS(C)(=O)=O)cc2NC(C)=O)cc1OC | 27.7 | 70 | 39.3 | – | – | –
2 | COc1ccc(CCN(C)CCOc2ccc(NS(C)(=O)=O)cc2F)cc1OC | 25.9 | 75 | 34.5 | – | – | –
3 | COc1cc(Cl)c(CCN(C)CCOc2ccc(NS(C)(=O)=O)cc2Cl)cc1OC | 17.8 | 79 | 22.4 | – | – | –
4 | COc1cc(CCN(C)CCOc2ccc(NS(C)(=O)=O)cc2Cl)c([N+](=O)[O-])cc1OC | 36.2 | 123 | 29.4 | – | – | –
5 | COc1ccc(CCN(C)CCOc2ccc(NS(C)(=O)=O)cc2-n2cccc2)cc1OC | 40.1 | 128 | 31.2 | 26.4 | 26.2 | 99
6 | COc1ccc(CCN(C)CCOc2ccc(NS(C)(=O)=O)cc2OCc2ccccc2)cc1OC | 30 | 114 | 26.3 | – | – | –
7 | COc1ccc(CCN(C)CCOc2ccc(NS(C)(=O)=O)cc2N)cc1OC | 32.6 | 105 | 31 | 33.3 | 28.6 | 86
8 | COc1cc(C)c(CCN(C)CCOc2ccc(NS(C)(=O)=O)cc2-n2cccc2)cc1OC | 26.3 | 81 | 32.1 | – | – | –
9 | COc1ccc(CCN(C)CCOc2ccc(NS(C)(=O)=O)cc2)cc1OC | 28.9 | 48 | 60.1 | – | – | –
10 | COc1ccc(CCN(C)CCOc2ccc(NS(C)(=O)=O)cc2I)cc1OC | 21.2 | 73 | 28.9 | – | – | –
11 | CN(CCOc1ccc(NS(C)(=O)=O)cc1)CCc1ccc(NS(C)(=O)=O)cc1 [DOFETILIDE] | 30.8 | 65 | 49.9 | 45.6 | 26.8 | 59
12 | COc1cc(N)c(CCN(C)CCOc2ccc(NS(C)(=O)=O)cc2Cl)cc1OC | 34.7 | 126 | 27.5 | – | – | –
13 | COc1ccc(CCN(C)CCOc2ccc(NS(C)(=O)=O)cc2[N+](=O)[O-])cc1OC | 25 | 75 | 33.3 | – | – | –
14 | COc1ccc(CCN(C)CCOc2ccc(NS(C)(=O)=O)cc2C)cc1OC | 27.2 | 94 | 28.9 | – | – | –
15 | Cc1cccc(CCN2CCC(C(=O)c3ccc(NS(C)(=O)=O)cc3)CC2)n1 | 30.2 | 71 | 41.8 | – | – | –
16 | COc1cc(C)c(CCN(C)CCOc2ccc(NS(C)(=O)=O)cc2Cl)cc1OC | 33.1 | 118 | 28 | 37.8 | 22.2 | 82
17 | COc1ccc(CCN(C)CCOc2ccc(NS(C)(=O)=O)cc2Nc2nccs2)cc1OC | 36.8 | 84 | 43.4 | – | – | –
18 | COc1cc(N)c(CCN(C)CCOc2ccc(NS(C)(=O)=O)cc2-n2cccc2)cc1OC | 24.7 | 62 | 39.4 | – | – | –
19 | COc1ccc(CCN(C)CCOc2ccc(NS(C)(=O)=O)cc2Br)cc1OC | 25.2 | 76 | 32.8 | – | – | –
20 | COc1ccc(CCN(C)CCOc2ccc(NS(C)(=O)=O)cc2Cl)cc1OC | 30.8 | 95 | 32.2 | – | – | –

Reference: ChEMBL document CHEMBL1131702, “Synthesis and biological activity of KCB-328 and its analogues: novel class III antiarrhythmic agents with little reverse frequency dependence” (1999)
